# Columns and labels:
# [1] = tested on: MicroNB cells (human neuroblastoma lung micrometastatic variant, MHH-NB11); assay: MTS-based viability assay, MicroNB cells; type: cell-based; conditions: 72 hr incubation, versus control media
# Description: (§1) The human neuroblastoma lung micrometastatic (MicroNB) and macrometastatic (MacroNB) variants were generated using a mouse model for human neuroblastoma metastasis (Nevo et al., 2008) from the parental cell lines MHH-NB11 (Pietsch et al., 1988) and SH-SY5Y (Biedler et al., 1978) as detailed here (Edry Botzer et al., 2011), and were maintained in culture as previously described (Nevo et al., 2008). The MicroNB and MacroNB variants were previously designated DisNB and MetNB, respectively (Edry Botzer et al., 2011). Authentication of MicroNB and MacroNB cells was performed by short tandem repeat analysis of DNA using the Type-it Microsatellite PCR Kit (Qiagen, Valencia, Calif.), for the genes published by the American Type Culture Collection (ATCC) (Manassas, Va.). The parental cell line MHH-NB11 was kindly provided by Dr. T. Pietsch (Department of Neuropathology, University of Bonn Medical Center, Bonn, Germany).
# (§2) Neuroblastoma cells were seeded (3×10^4 per well) in a 96-well flat-bottomed tissue culture plate. After an incubation of 24 hr, cells were washed and incubated with the relevant factors (detailed in the following sections) diluted in starvation medium (RPMI-1640 containing 5% bovine serum albumin (BSA); Biological Industries, Kibbutz Beit Haemek, Israel; Sigma-Aldrich). Cell viability under normal conditions (starvation medium containing BSA) or after incubation with the relevant factors was monitored after 72 hr using an XTT (XTT cell proliferation kit; Biological Industries) or MTS-based (CellTiter 96® AQueous One Solution Cell Proliferation Assay; Promega) viability assays according to manufacturer instructions. Cells were also counted using the trypan-blue exclusion assay to verify the results obtained by XTT and MTS-based viability assays.
# Circular dichroism analysis of human hemoglobin (HB), hemoglobin subunit alpha (HBA) and subunit beta (HBB) indicated a helical structure for all three proteins (FIG. 3C). […] Neuroblastoma cells were seeded (3×10^4 per well) in a 96 well flat-bottomed tissue culture plate. After 24 hr of incubation cells were washed and incubated with human HBB dissolved in starvation medium (RPMI 5% BSA) to the indicated concentrations. Cell viability under normal conditions (starvation medium) or after incubation with human HBB was monitored after an incubation of 72 hr using an MTS-based viability assay (CellTiter 96® AQueous One Solution Cell Proliferation Assay, Promega) according to the manufacturer instructions. Data are means of three independent experiments±SD. Significance was evaluated using Student's t-test for each variant incubated with human HBB compared to incubation with control media (con).
# [2] = tested on: MacroNB cells (human neuroblastoma lung macrometastatic variant); assay: MTS-based viability assay, MacroNB cells; type: cell-based; conditions: 72 hr incubation, versus control media
# Description: as §1
# as §2, with “After an incubation of 24 hr, cells were washed and incubated with the relevant factors (detailed in the following sections) diluted in starvation medium (RPMI-1640 containing 5% bovine serum albumin (BSA); Biological Industries, Kibbutz Beit Haemek, Israel; Sigma-Aldrich).” left out
# Circular dichroism analysis of human hemoglobin (HB), hemoglobin subunit alpha (HBA) and subunit beta (HBB) indicated a helical structure for all three proteins (FIG. 3C). […] Cell viability under normal conditions (starvation medium) or after incubation with human HBB was monitored after an incubation of 72 hr using an MTS-based viability assay (CellTiter 96® AQueous One Solution Cell Proliferation Assay, Promega) according to the manufacturer instructions. […] Significance was evaluated using Student's t-test for each variant incubated with human HBB compared to incubation with control media (con).
# [3] = tested on: MCF-7 breast carcinoma cells; assay: Viability of cancerous cell lines, MCF-7; conditions: MTS-based assay; FIG. 3E
# Procedure: as §2
# When incubated with the highest amount of HBB (100 μg), the viability of the following cell lines was inhibited: the breast cancer cell lines T47D and MCF-7, the prostate cancer cell line 22RVi, the cervical cancer cell line Hela, and the melanoma cell lines RALL and RKTJ.
# neuroblastoma cells = assay: Viability of neuroblastoma cells with N- and C-terminal CNBr fragments of HBB; type: cell-based, human; conditions: MTS-based proliferation assay and trypan blue exclusion; 72 hr; FIG. 5B
# Procedure: as §2
# Human HBB was incubated at a concentration of 2 mg/ml with 50 mg/ml CNBr (Sigma-Aldrich) in 5% trifluoroacetic acid (Halocarbon). […] After 72 hr of incubation cell viability was assessed as described below.
# In order to pin-point the active fragment of the human HBB protein, the protein was cleaved to two fragments using cyanogen bromide (CNBr). […] Significance was evaluated using Student's t-test for each variant incubated with N- or C-terminal fragments of human HBB compared to incubation with control media (not shown).
# [4] = tested on: MicroNB cells inoculated to the adrenal gland; assay: Orthotopic MicroNB neuroblastoma model, intranasal Metox versus scrambled-Metox (Example 8); type: in vivo, athymic nude mice; conditions: intranasal 1 mg/kg once a week for 8 weeks
# Procedure: (§3) An orthotopic inoculation to the adrenal gland of athymic nude mice was performed with either 50 μl of PBSX1 supplemented with 5% BSA, or with 1×10^6 MicroNB cells (generated as described previously (Edry Botzer et al., 2011)) suspended in 50 μl of PBSX1 supplemented with 5% BSA. The intra-adrenal inoculation was performed as detailed here (Nevo et al., 2008). In short, anesthesia was induced by ketamine (100 mg/kg body weight) and 2% xylazine (10 mg/kg body weight) administered intraperitoneally. Tumor cells (1×10^6/50 μl) or PBSX1 5% BSA (50 μl) were injected orthotopically into the left adrenal gland of nude mice.
# (§4) The development of local tumors in the adrenal gland was monitored and measured weekly with an external digital caliper. The tumor volume in mm^3 was calculated by the ellipsoid volume calculation formula: Volume=[…] (Tomayko and Reynolds, 1989). At the end of the experiments, local adrenal tumors were weighed.
# (§5) For examining the presence of micrometastatic cells in the lungs and bone marrow of mice, organs were harvested at the end of the experiment, and immediately snap frozen in dry ice. RNA was isolated from frozen tissues and used for the generation of first-strand cDNA using an M-MLV Reverse Transcriptase (See below, “RNA preparation and Reverse Transcription Polymerase Chain Reaction”). Quantification of human cells in mouse organs was determined by quantitative real-time PCR (qRT-PCR) assays.
# (§6) Mice were orthotopically inoculated with MicroNB cells to the adrenal gland to generate local adrenal tumors and lung and bone marrow micrometastasis (see “Orthotopic inoculation of tumor cells”). Fourteen days post tumor cell inoculation mice were treated either intravenously or intranasally with 1 mg/kg (0.02 mg/mouse) of the short inhibitory human HBB peptide, Metox, once a week for 8 weeks.
# (§7) For intranasal administration of Metox, the lyophilized peptide was dissolved prior to each administration in Dimethyl Sulfoxide (DMSO) (Sigma-Aldrich) to a concentration of 0.013 mg/μl, and then diluted in sterile PBSX1 to a concentration of 0.4 μg/μl. The dissolved peptide was filtered (0.2 μm) and mice were forced to inhale 50 μl of Metox (0.02 mg/mouse). Control group was forced to inhale 50 μl of a control scrambled peptide, scrambled-Metox (see “Solid-phase synthesis of Metox and scrambled-Metox peptides”).
# In an experiment similar to that described in Example 7, athymic nude mice were orthotopically inoculated with MicroNB cells to the adrenal gland. […] Mice were monitored for tumor volume on a weekly basis.
# [5] = tested on: MicroNB cells inoculated to the adrenal gland; assay: Orthotopic MicroNB neuroblastoma model, HBB11p i.v. or inhaled versus PBS (Example 7); type: in vivo, athymic nude mice; conditions: for size of local tumors versus PBS-treated mice: FIG. 7B, 7C
# Procedure: as §3, §4, §5, §6, §7
# Twenty four mice were orthotopically inoculated to the adrenal gland with MicroNB cells. Two weeks post inoculation, mice were either intravenously (IV) injected with HBB11p or PBS, or forced to inhale a droplet of soluble HBB11p, once a week for 8 weeks (FIG. 7A). Mice were monitored weekly for tumor volume. At the end of the experiment, local tumors were weighed and organs were harvested and examined for human neuroblastoma cells and for HBB2 expression using real time PCR (FIG. 7A).
# [6] = HBB11p once a week for 8 weeks, data not shown
substance,measurement,setting,value
"HBA: alpha subunit of human hemoglobin, HPLC-separated from native human hemoglobin [reference compound]",influence on viability of MicroNB cells (in words),[1],did not influence cell viability
same,influence on viability of MacroNB cells (in words),[2],did not influence cell viability
"whole human hemoglobin protein: native human hemoglobin (Sigma), whole protein [reference compound]",influence on viability of MCF-7 breast carcinoma cells (in words),[3],inhibited cell viability as well but not to the same extent as HBB
"HBB2: beta 2 subunit of mouse hemoglobin, SEQ ID NO:1; HPLC peak no. 4 of mouse lung-derived factors",influence on viability of MicroNB cells (in words),[1],inhibited cell viability
same,influence on viability of MacroNB cells (in words),[2],inhibited cell viability
"C-terminal fragment: 91 amino acid C-terminal fragment of human HBB from CNBr cleavage, SEQ ID NO:4",influence on neuroblastoma cell viability (in words),neuroblastoma cells,responsible for the inhibitory activity
"N-terminal fragment: N-terminal fragment of human HBB from CNBr cleavage, SEQ ID NO:3",influence on neuroblastoma cell viability (in words),neuroblastoma cells,exhibited an inhibitory effect however to a lesser extent
ENFRLLGNVLVCVLA (listed as Homo sapiens) [HBB11p],influence on viability of MicroNB cells (in words),[1]; listed as Peptide number 11,significantly inhibited the viability
same,influence on viability of MicroNB cells (in words),[1]; listed as peptide 11,even greater than that caused by HBB
same,weight of local tumors of scrambled-Metox treated mice relative to Metox treated mice,"[4]; 70 days post inoculation, FIG. 8C, 8D",significantly higher
same,metastatic load of MicroNB cells in lungs versus scrambled-Metox,"[4]; Real-Time PCR, FIG. 8E",significantly lower
same,metastatic load of MicroNB cells in bone marrow versus scrambled-Metox,"[4]; Real-Time PCR, FIG. 8F",significantly lower
same,"local tumor volume, Metox versus scrambled-Metox treated mice","[4]; twenty days after inoculation, more significant with time, FIG. 8B",a difference was apparent
same,bone marrow metastasis versus PBS-treated mice,[5]; [6],significantly inhibited as well
same,liver metastasis versus PBS-treated mice,[5]; [6],significantly inhibited as well
same,spleen metastasis versus PBS-treated mice,[5]; [6],significantly inhibited as well
same,lung metastasis versus PBS-treated mice,"[5]; HBB11p once a week for 8 weeks, real time PCR, FIG. 7D",significantly inhibited
same,size of local tumors versus PBS-treated mice,[5]; inhaled droplet of HBB11p once a week for 8 weeks,significantly smaller
same,size of local tumors versus PBS-treated mice,[5]; intravenous HBB11p once a week for 8 weeks,significantly smaller
